In article PMC10541198, “Specific quinone reductase 2 inhibitors reduce metabolic burden and reverse Alzheimer’s disease phenotype in mice” (The Journal of Clinical Investigation, 2023):
Values joined by “and” are separate entries in the source; they are usually repeats but may differ in a detail not shown here. Equal values may be shown once.

System: GFAP
Test: IHC of GFAP (astrocyte activation) in 5xFAD brain sections
Type: in vivo, mouse
Details: for Figure 9E, IHC signal: individual animals
Text: Following the behavioral experiments, we assessed brain pathologies associated with AD present in the 5xFAD mice ([37]). Therefore, 5 days following the last behavioral experiment, and 1 month after the start of YB-537 consumption, mice were sacrificed, and coronal brain sections were used for IHC. Since the CA1 region of the hippocampus is affected during AD pathogenesis ([37]), and this brain region is involved in the behavioral paradigms used here, we acquired images of CA1. This was done with an Olympus IX83 confocal microscope using the same settings, antibodies, and exposures in all mice. Images were analyzed using Imaris (Bitplane; see methods). For each mouse, 3 coronal sections were used per antibody. In each section, the same region of CA1 was acquired, using the same image frame size and resolution, at all possible depths of the section — using a Z-stack of the whole section — to allow measurement of the fluorescent antibody marker volume, which was normalized to the brain volume from which it was taken. First, we measured oxidative stress, as indicated by 4-HNE ([38]) (Abcam, ab48506).
Perfused and fixed brain slices were blocked with 10% normal donkey serum (DNS) and 0.2% triton (Sigma-Aldrich) in PBS. Antibodies, including 4-HNE (AbCam, ab48506), Iba1 (AbCam, ab5076), AT-8 (Thermo, MN1020), Amyloid β (AbCam, ab201060), diluted in PBS with 10% DNS, were incubated at 4°C overnight. Secondary antibodies including donkey-anti-goat Alexa Fluor 568 (AbCam, ab175704), donkey-anti-mouse Cy 5 (Jackson Immuno Research, 715-175-151), and donkey-anti-rabbit DyLight 488 (AbCam, ab98488) all diluted 1:500 in PBS with 1% BSA, were applied to the slices at RT for 2 hours the next day. Slices were mounted onto glass slides using DAPI containing Vectashield (H-1200). Images were taken using a confocal microscope (Olympus IX83). Three slices were used per mouse per antibody. Tiling images of the dorsal CA1 and cortex (Bregma: –1.58mm to –2.30mm) were taken using ×20 objective, acquiring a Z-stack of the whole section. Analysis of the images was done blind by an experimenter unaware of the experimental conditions or details, using Imaris (Bitplane) software. A surface reconstruction module was used to extract the data as volumes of the used markers (4-HNE, phospho-tau, amyloid β, GFAP, and Iba1). Marker volume and intensity were normalized to the corresponding brain volume. The normalized value was averaged for each triplicate and presented here. […]
Brains were then briefly removed and placed in chilled, 4% PFA for 48 h, f oll owe d by immersion in 30% sucrose in 0.1 M PBS for a furt her 48 h. Bra i ns wer e t h e n stored at -80°C, until t he y were sliced into 40µm coronal sections usinga Lei ca CM 1950cryostat. Sli ces were then washed x3 in PBS and bl oc ke d for 1 h at RT using 10% normal donkey serum (DNS) and 0.2% triton (Sigma-Aldrich) in PBS. Antibodies, including 4- HNE (1:500, AbCam, ab48506), Iba1 (1:2,000, AbCam, ab5076), GFAP (Abcam, ab53554), phospho- tau (1:1,000, Thermo, MN1020) and amyloid β (1:1,000, AbCam, ab201060) diluted in PBS with 10% DNS were incubated at 4°C overnight. The next day, the slices were washed x3 times in PBS, and secondary antibodies including donkey anti goat A l e x a Fluor 568 (AbCam, ab175704), donkey anti-mouse Cy 5 (Jackson Immuno Research, 715- 175- 151) and donkey anti-rabbit DyLight 488 (AbCam, ab98488) all diluted 1:500 in PBS with 1% BSA, were applied to the slices at RT for 2 h. Following the incubation, the slices were washed x3 times in PBS, mounted onto gl ass slides, were uniformly covered in DAPI containing Vectashield (H-1200) and coverslips were a dde d. […]

Q: What does the source list for `Cc1ccc(-c2cn3cccc(C)c3n2)cc1S(=O)(=O)N1CCNCC1` [YB-537]?
A: GFAP normalized volume (individual mice) (CA1, 5xFAD 1 month, Females): 0.0219 and 0.0268 and 0.0382 and 0.0442 and 0.0260 and 0.0233 and 0.0143; GFAP vs vehicle (CA1, 5xFAD 1 month, Females): unchanged; GFAP normalized volume (individual mice) (CA1, 5xFAD 1 month, Males): 0.0303 and 0.0430 and 0.0365 and 0.0251 and 0.0258 and 0.0274 and 0.0223 and 0.0292 and 0.0263; GFAP vs vehicle (CA1, 5xFAD 1 month, Males): unchanged; GFAP normalized volume (individual mice) (CA1, 5xFAD 1 month, Males + Females): 0.0303 and 0.0430 and 0.0365 and 0.0251 and 0.0258 and 0.0442 and 0.0260 and 0.0233 and 0.0143 and 0.0219 and 0.0268 and 0.0382 and 0.0274 and 0.0223 and 0.0292 and 0.0263; GFAP vs vehicle (CA1, 5xFAD 1 month, total population): unchanged; Figure 9E, IHC signal (Cortex): 0.0026 and 0.0035 and 0.0044 and 0.0272 and 0.0046 and 0.0194 and 0.0258 and 0.0029 and 0.0033; Figure 9E, IHC signal (Hippocampus): 0.0259 and 0.0223 and 0.0094 and 0.0129 and 0.0279 and 0.0329 and 0.0343 and 0.0281 and 0.0220; GFAP vs vehicle (cortex, 5xFAD 1 month, females): not significantly reduced; GFAP vs vehicle (cortex, 5xFAD 1 month, males): significantly reduced; GFAP vs vehicle (cortex, 5xFAD 1 month, total population): significantly reduced
